Where two headings read alike, the source gives them in different places.
Experiments:
[1] = tested on: rats with ligated L5 and L6 spinal nerves; assay: Chung model of neuropathic pain (tactile allodynia, von Frey hairs); assay type: in vivo; conditions: Rattus norvegicus, 0.5 h, 30 min following drug administration, read-out: % Pain Reversal ± SEM; for inhibition in vivo at 0.001 mg/kg: 1 μg/kg i.p.; for inhibition in vivo at 0.003 mg/kg: 3 μg/kg i.p.
Excerpt: A model in accordance with Kim and Chung 1992, Pain […], pp 355-363 (Chung model), for chronic pain (in particular peripheral neuropathy) involves the surgical ligation of the L5 (and optionally the L6) spinal nerves on one side in experimental animals. Rats recovering from the surgery gain weight and display a level of general activity similar to that of normal rats. However, these rats develop abnormalities of the foot, wherein the hindpaw is moderately everted and the toes are held together. More importantly, the hindpaw on the side affected by the surgery appears to become sensitive to pain from low-threshold mechanical stimuli, such as that producing a faint sensation of touch in a human, within about 1 week following surgery. This sensitivity to normally non-painful touch is called “tactile allodynia” and lasts for at least two months. The response includes lifting the affected hindpaw to escape from the stimulus, licking the paw and holding it in the air for many seconds. None of these responses is normally seen in the control group.
Rats are anesthetized before surgery. The surgical site is shaved and prepared either with betadine or Novacaine. Incision is made from the thoracic vertebra Xlll down toward the sacrum. Muscle tissue is separated from the spinal vertebra (left side) at the L4-S2 levels. The L6 vertebra is located and the transverse process is carefully removed with a small rongeur to expose the L4-L6 spinal nerves. The L5 and L6 spinal nerves are isolated and tightly ligated with 6-0 silk thread. The same procedure is done on the right side as a control, except no ligation of the spinal nerves is performed.
A complete hemostasis is confirmed, then the wounds are sutured. A small amount of antibiotic ointment is applied to the incised area, and the rat is transferred to the recovery plastic cage under a regulated heat-temperature lamp. On the day of the experiment, at least seven days after the surgery, typically six rats per test group are administered the test drugs by intraperitoneal (i.p.) injection or oral gavage. For i.p. injection, the compounds are formulated in approximately 10 to 50% DMSO and given in a volume of 1 ml/kg body weight.
Tactile allodynia is measured prior to and 30 minutes after drug administration using von Frey hairs that are a series of fine hairs with incremental differences in stiffness. Rats are placed in a plastic cage with a wire mesh bottom and allowed to acclimate for approximately 30 minutes. The von Frey hairs are applied perpendicularly through the mesh to the mid-plantar region of the rats' hindpaw with sufficient force to cause slight buckling and held for 6-8 seconds. The applied force has been calculated to range from 0.41 to 15.1 grams. If the paw is sharply withdrawn, it is considered a positive response. A normal animal will not respond to stimuli in this range, but a surgically ligated paw will be withdrawn in response to a 1-2 gram hair. The 50% paw withdrawal threshold is determined using the method of Dixon, W. J., Ann. Rev. Pharmacol. Toxicol. 20:441-462 (1980). The post-drug threshold is compared to the pre-drug threshold and the percent reversal of tactile sensitivity is calculated based on a normal threshold of 15.1 grams. The results are expressed in percent (%) MPE, where the MPE value reflects the percentage reversal of pain threshold to that of a normal animal (100%). Table 3 below indicates results of this test with Compounds 1, 7 and 29 of the invention, administered i.p. and in oral doses.

male Sprague-Dawley rats = assay: Sedative activity (exploratory behavior); assay type: in vivo, rat; conditions: intraperitoneally, up to a dose of 1 mg/kg
Protocol: To test sedation, six male Sprague-Dawley rats are given up to 3 mg/kg of the test compound in a saline or DMSO vehicle by intraperitoneal injection (i.p.). Sedation is graded 30 minutes following administration of the drug by monitoring locomotor skills as follows.
The Sprague-Dawley rats are weighed and 1 ml/kg body weight of an appropriate concentration (ie. 3 mg/ml for a final dose of 3 mg/kg) drug solution is injected intraperitoneally. Typically the test compound is formulated in approximately 10 to 50% DMSO. The results are compared to controls that are injected with 1 ml/kg saline or 10 to 50% DMSO. Rat activity is then determined 30 minutes after injection of the drug solution. Rats are placed in a dark covered chamber and a digicom analyzer (Omnitech Electronic) quantitates their exploratory behavior for a five-minute period. The machine records each time the rat interrupts an array of 32 photoelectric beams in the X and Y orientation.

[2] = biological target: T1, alpha2C adrenergic receptors (Homo sapiens, UniProt P18825); assay: Receptor Selection and Amplification Technology (RSAT) assay, alpha2C; assay type: cell-based; conditions: for EC50: NA = not active at concentrations less than 10 micromolar, read-out: Alpha 2C EC50; for Alpha 2C intrinsic activity: fraction of maximal effect of standard full agonist brimonidine (UK14304)
T1 construct: expressed in transfected cells; host or cells: NIH-3T3
T1 sequence (P18825 1-462): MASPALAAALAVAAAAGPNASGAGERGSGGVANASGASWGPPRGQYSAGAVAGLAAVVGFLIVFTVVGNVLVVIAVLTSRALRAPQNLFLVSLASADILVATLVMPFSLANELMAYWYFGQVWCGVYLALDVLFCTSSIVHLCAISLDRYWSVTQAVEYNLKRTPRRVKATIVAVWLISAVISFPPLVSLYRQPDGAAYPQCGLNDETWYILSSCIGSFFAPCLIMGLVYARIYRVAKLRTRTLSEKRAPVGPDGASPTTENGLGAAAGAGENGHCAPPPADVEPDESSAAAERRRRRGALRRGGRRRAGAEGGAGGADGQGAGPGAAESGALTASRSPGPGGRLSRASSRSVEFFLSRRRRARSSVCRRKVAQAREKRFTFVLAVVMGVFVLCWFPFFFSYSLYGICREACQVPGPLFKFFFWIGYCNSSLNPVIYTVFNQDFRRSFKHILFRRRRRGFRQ
Outline: (§1)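 NIH-3T3 cells cotransfected with receptor, Gq/i5 and β-galactosidase were incubated with drugs in triplicate for 72-96 hr at 37 °C; proliferation read as β-galactosidase activity (o-nitrophenyl-β-D-galactopyranoside, OD 420 nm).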

[3] = biological target: T2, alpha2B adrenergic receptors (Homo sapiens, UniProt P18089); assay: Receptor Selection and Amplification Technology (RSAT) assay, alpha2B; assay type: cell-based; conditions: for EC50: NA = not active at concentrations less than 10 micromolar, read-out: Alpha 2B EC50; for Alpha 2B intrinsic activity: fraction of maximal effect of standard full agonist brimonidine (UK14304)
T2 construct: expressed in transfected cells; host or cells: NIH-3T3
T2 sequence (P18089 1-450): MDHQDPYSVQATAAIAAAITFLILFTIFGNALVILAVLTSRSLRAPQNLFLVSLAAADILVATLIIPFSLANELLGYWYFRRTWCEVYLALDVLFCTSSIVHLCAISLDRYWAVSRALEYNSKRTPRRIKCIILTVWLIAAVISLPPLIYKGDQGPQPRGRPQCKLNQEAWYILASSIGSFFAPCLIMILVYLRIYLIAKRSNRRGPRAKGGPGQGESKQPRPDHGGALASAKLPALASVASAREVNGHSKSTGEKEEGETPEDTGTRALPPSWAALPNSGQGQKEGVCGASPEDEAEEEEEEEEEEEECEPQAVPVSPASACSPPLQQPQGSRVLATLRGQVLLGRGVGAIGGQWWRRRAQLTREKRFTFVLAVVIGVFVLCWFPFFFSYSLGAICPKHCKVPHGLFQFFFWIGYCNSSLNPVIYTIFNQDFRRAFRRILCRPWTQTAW
Outline: as §1

## S=c1[nH]cc(CC2CCC3=C2CCC3)[nH]1 (stereo not drawn) [Compound 1, 4-(1,2,3,4,5,6-hexahydro-pentalen-1-ylmethyl)-1,3-dihydro-imidazole-2-thione]
[1]; ip, 30 μg/kg i.p.
  inhibition in vivo at 0.03 mg/kg: 9 ± 2%
[1]; ip, 100 μg/kg i.p.
  inhibition in vivo at 0.1 mg/kg: 13 ± 2%
[1]; ip, 1000 μg/kg i.p.
  inhibition in vivo at 1 mg/kg: 44 ± 7%
[1]; po, 100 μg/kg p.o.
  inhibition in vivo at 0.1 mg/kg: 29 ± 5%

## S=c1[nH]cc(CC2CCc3ccccc32)[nH]1 (stereo not drawn) [Compound 7, 4-indan-1-ylmethyl-1,3-dihydro-imidazole-2-thione]
[1]; ip
  inhibition in vivo at 0.001 mg/kg: 1 ± 1%
  inhibition in vivo at 0.003 mg/kg: 23 ± 4%
[1]; ip, 10 μg/kg i.p.
  inhibition in vivo at 0.01 mg/kg: 58 ± 8%
[1]; ip, 30 μg/kg i.p.
  inhibition in vivo at 0.03 mg/kg: 85 ± 6%
[1]; ip, 100 μg/kg i.p.
  inhibition in vivo at 0.1 mg/kg: 89 ± 7%
[1]; po, 10 μg/kg p.o.
  inhibition in vivo at 0.01 mg/kg: 1 ± 1%
[1]; po, 30 μg/kg p.o.
  inhibition in vivo at 0.03 mg/kg: 56 ± 10%
[1]; po, 100 μg/kg p.o.
  inhibition in vivo at 0.1 mg/kg: 58 ± 8%
[1]; po, 300 μg/kg p.o.
  inhibition in vivo at 0.3 mg/kg: 61 ± 6%

## CC1=C(C)C(Cc2c[nH]c(=O)[nH]2)CC1 (stereo not drawn) [Compound 44, 4-(2,3-dimethyl-cyclopent-2-enylmethyl)-1,3-dihydro-imidazol-2-one]
[1]; ip
  inhibition in vivo at 0.001 mg/kg: 0.5 ± 2.9%
  inhibition in vivo at 0.003 mg/kg: 24 ± 4.6%
[1]; ip, 10 μg/kg i.p.
  inhibition in vivo at 0.01 mg/kg: 46 ± 9.1%
[1]; ip, 30 μg/kg i.p.
  inhibition in vivo at 0.03 mg/kg: 62 ± 9.6%
[1]; ip, 100 μg/kg i.p.
  inhibition in vivo at 0.1 mg/kg: 82 ± 5.8%

## O=c1[nH]cc(C[C@H]2CCc3cc(F)ccc32)[nH]1 [Compound 61, R-(+)-4-(5-fluoro-indan-1-ylmethyl)-1,3-dihydro-imidazol-2-one]
Male Sprague-Dawley rats
  sedative effect: no sedative effect

## O=C1c2c(CO)cccc2CCC1Cc1c[nH]c(=S)[nH]1 (stereo not drawn)
[2]
  EC50: 306 nM
  Alpha 2C intrinsic activity: 0.34
[3]
  EC50: 162 nM
  Alpha 2B intrinsic activity: 0.95

## CC1=C(Br)C(Cc2c[nH]c(=S)[nH]2)CC1 (stereo not drawn)
[2]
  EC50: 139 nM
  Alpha 2C intrinsic activity: 0.48
[3]
  EC50: 27 nM
  Alpha 2B intrinsic activity: 0.95

## S=c1[nH]cc(CC2CCc3sccc3C2)[nH]1 (stereo not drawn) [Compound 29, 4-(4,5,6,7-tetrahydro-benzo[b]thiophen-5-ylmethyl)-1,3-dihydro-imidazole-2-thione]
[1]; ip, 10 μg/kg i.p.
  inhibition in vivo at 0.01 mg/kg: 17 ± 3%
[1]; ip, 30 μg/kg i.p.
  inhibition in vivo at 0.03 mg/kg: 61 ± 11%
[1]; ip, 100 μg/kg i.p.
  inhibition in vivo at 0.1 mg/kg: 14 ± 2%

## S=c1[nH]cc(C2Cc3cccc(Cl)c3C2)[nH]1 (stereo not drawn)
[2]
  EC50: 45 nM
  Alpha 2C intrinsic activity: 0.74
[3]
  EC50: < 2 nM
  Alpha 2B intrinsic activity: 1.15

## S=c1[nH]cc(CC2CCC=C2c2cccs2)[nH]1 (stereo not drawn)
[2]
  EC50: 611 nM
  Alpha 2C intrinsic activity: 0.42
[3]
  EC50: 234 nM
  Alpha 2B intrinsic activity: 0.53

## CC1=C(c2ccc(F)cc2)C(Cc2c[nH]c(=S)[nH]2)CCC1 (stereo not drawn)
[2]
  EC50: 34.5 nM
  Alpha 2C intrinsic activity: 0.82
[3]
  EC50: 22.5 nM
  Alpha 2B intrinsic activity: 0.97

## Cc1ccc(C2=CCCC2Cc2c[nH]c(=S)[nH]2)cc1 (stereo not drawn)
[2]
  EC50: > 3000 nM
  Alpha 2C intrinsic activity: 0.46
[3]
  EC50: 2180 nM
  Alpha 2B intrinsic activity: 0.47

## S=c1[nH]cc(CC2CCC=C2c2ccc(Cl)s2)[nH]1 (stereo not drawn)
[2]
  EC50: 2760 nM
  Alpha 2C intrinsic activity: 0.75
[3]
  EC50: 1100 nM
  Alpha 2B intrinsic activity: 0.69

## S=c1[nH]cc(CC2CCc3c(Br)cccc32)[nH]1 (stereo not drawn)
[2]
  EC50: 168 nM
  Alpha 2C intrinsic activity: 0.59
[3]
  EC50: 87 nM
  Alpha 2B intrinsic activity: 0.73

## O=c1[nH]cc(CC2CCC3=C2CCC3)[nH]1 (stereo not drawn) [Compound 41, 4-(1,2,3,4,5,6-Hexahydro-pentalen-1-ylmethyl)-1,3-dihydro-imidazol-2-one]
[1]; ip, 10 μg/kg i.p.
  inhibition in vivo at 0.01 mg/kg: 3 ± 1.6%
[1]; ip, 30 μg/kg i.p.
  inhibition in vivo at 0.03 mg/kg: 71 ± 2.8%
[1]; ip, 100 μg/kg i.p.
  inhibition in vivo at 0.1 mg/kg: 13 ± 1%

## CC1CC(Cc2c[nH]c(=S)[nH]2)c2ccccc21 (stereo not drawn)
[2]
  EC50: 1020 nM
  Alpha 2C intrinsic activity: 1.39
[3]
  EC50: 33 nM
  Alpha 2B intrinsic activity: 1.01

## Fc1ccc(C2=CCCC2Cc2c[nH]c(=S)[nH]2)cc1F (stereo not drawn)
[2]
  EC50: 205 nM
  Alpha 2C intrinsic activity: 0.68
[3]
  EC50: 225 nM
  Alpha 2B intrinsic activity: 0.44

## S=c1[nH]cc(C[C@@H]2CCc3ccccc32)[nH]1
[2]
  EC50: 630 nM
  Alpha 2C intrinsic activity: 0.61
[3]
  EC50: 24.5 nM
  Alpha 2B intrinsic activity: 0.97

## CC1CC(Cc2c[nH]c(=S)[nH]2)C(=O)c2ccccc21 (stereo not drawn)
[2]
  EC50: > 2000 nM
  Alpha 2C intrinsic activity: 0.61
[3]
  EC50: 523 nM
  Alpha 2B intrinsic activity: 0.96

## S=c1[nH]cc(CC2CC=CC2)[nH]1 [drawing 24]
[2]
  EC50: 180 nM
  Alpha 2C intrinsic activity: 0.51
[3]
  EC50: 24 nM
  Alpha 2B intrinsic activity: 0.85

## Cc1cccc2c1CCC2Cc1c[nH]c(=S)[nH]1 (stereo not drawn)
[2]
  EC50: 939 nM
  Alpha 2C intrinsic activity: 0.34
[3]
  EC50: 58 nM
  Alpha 2B intrinsic activity: 0.93

— patent US7323485B2, “4-(substituted cycloalkylmethyl) imidazole-2-thiones, 4-(substituted cycloalkenylmethyl) imidazole-2-thiones, 4-(substituted cycloalkylmethyl) imidazol-2-ones and 4-(substituted cycloalkenylmethyl) imidazol-2-ones and related compounds” (Allergan, Inc., priority 2002, dated 2008)
